Results: US20060030054A1, “Fluorescent probe” (Daiichi Pure Chemicclas Co., LTD., of Tokyo, Japan, priority 2002, published 2006)
pKd: −log10 of the molar value.

How the values were obtained:
[1] = Fluorescence intensity change against pH change under co-presence of sodium; type: physicochemical; conditions: 0.2 M Tris-phosphate buffers at various pH, 500 mM sodium perchlorate, DMF 0.1%
Method: Fluorescence intensity changes of the compound obtained in Example 7 and Sodium Green tetra(tetramethylammonium)salt (Molecular Probes Inc.) against pH change were studied under co-presence of sodium. Measurements were conducted in 0.2 M Tris-phosphate buffers at various pH containing 500 mM of sodium perchlorate using dimethylformamide (0.1%) as a co-solvent. The compound obtained in Example 7 was measured at excitation wavelength of 504 nm and fluorescence wavelength of 522 nm and Sodium Green tetra(tetramethylammonium)salt was measured at excitation wavelength of 508 nm and fluorescence wavelength of 533 nm.

[2] = Complex formation constant from fluorescence intensity change on addition of potassium; type: binding; conditions: 0.2 M Tris-hydrochloride buffer pH 7.5, potassium chloride, DMF 0.1%, compound 3 μM; read-out: Complex formation constant K^+
Method: (§1) Fluorescence intensity changes of the compound obtained in Example 5 and the compound obtained in Example 7 above were measured with addition of sodium, magnesium, and potassium. Measurements were conducted in 0.2 M Tris-perchlorate buffers at pH 7.5 containing various concentrations of sodium perchlorate and magnesium perchlorate using dimethylformamide (0.1%) as co-solvent when sodium and magnesium were added, and in 0.2 M Tris-hydrochloride buffers at pH 7.5 containing various concentrations of potassium chloride using dimethylformamide (0.1%) as co-solvent when potassium was added. The final concentrations of the compounds obtained in Example 5 and Example 7 were adjusted to be 3 μM. The compound obtained in Example 5 was measured at excitation wavelength of 492 nm and fluorescence wavelength of 513 nm and the compound obtained in Example 7 was measured at excitation wavelength of 504 nm and fluorescence wavelength of […].

[3] = Complex formation constant from fluorescence intensity change on addition of sodium; type: binding; conditions: 0.2 M Tris-perchlorate buffer pH 7.5, sodium perchlorate, DMF 0.1%, compound 3 μM; read-out: Complex formation constant Na^+
Method: as §1

[4] = Complex formation constant from fluorescence intensity change on addition of magnesium; type: binding; conditions: 0.2 M Tris-perchlorate buffer pH 7.5, magnesium perchlorate, DMF 0.1%, compound 3 μM
Method: as §1

SMILES: Cc1cc2c(cc1-c1c3cc(Cl)c(=O)cc-3oc3cc(O)c(Cl)cc13)OCCOCCOCCOCCO2 [Example 7]
- Susceptibility of fluorescence intensity to pH change compared with Sodium Green tetra(tetramethylammonium)salt [1]: less susceptible to a pH change
- pKd [2]: 3.39
- pKd [3]: 3.49
- Complex formation constant Mg^+ [4]: Unmeasurable
